This is an account of results in article PMC3634465, “New Anti-Inflammatory Aromatic Components from Antrodia camphorata” (International Journal of Molecular Sciences, 2013).

Series [1] deals with LPS-induced NO production in RAW264.7 macrophages. In words: LPS-induced NO production in macrophages (nitrite, Griess reaction). It is filed as cell-based, murine. Conditions: LPS 100 ng/mL, 24 h; for IC50: Mus musculus, RAW264.7, non-linear regression, read-out: IC50 of inhibition of LPS-induced NO production; for NO level: LPS alone 25.3 ± 3.0, control 2.5 ± 0.2. The protocol:
(§1) A murine macrophage cell line, RAW264.7 (BCRC No. 60001), was purchased from the Bioresources Collection and Research Center (BCRC, Hsinchu, Taiwan) of the Food Industry Research and Development Institute (Hsinchu, Taiwan). Cells were cultured in plastic dishes containing Dulbecco’s Modified Eagle Medium (DMEM, Sigma, St. Louis, MO, USA) supplemented with 10% fetal bovine serum (FBS, Sigma) in a CO2 incubator (5% CO2 in air) at 37 °C and subcultured every 3 days at a dilution of 1:5 using 0.05% trypsin-0.02% EDTA in Ca^2+-, Mg^2+-free phosphate-buffered saline (DPBS).
NO production was indirectly assessed by measuring the nitrite levels in the cultured media and serum determined by a colorimetric method based on the Griess reaction. The cells were incubated with different concentrations of samples in the presence of LPS (100 ng/mL) at 37 °C for 24 h. Then, cells were dispensed into 96-well plates, and 100 μL of each supernatant was mixed with the same volume of Griess reagent (1% sulfanilamide, 0.1% naphthyl ethylenediamine dihydrochloride and 5% phosphoric acid) and incubated at room temperature for 10 min; the absorbance was measured at 540 nm with a Micro-Reader (Molecular Devices).
IC50 values were estimated using a non-linear regression algorithm (Sigma Plot 8.0; SPSS Inc., Chicago, IL, USA). Statistical evaluation was carried out by one-way analysis of variance (ANOVA, followed by Scheffe’s multiple range tests).
For orientation: Nitrite, measured by Griess reagent, commonly stands in for NO production.

Series [2] in a line: Cell viability (MTT) in the presence of LPS. Conditions: mouse, RAW264.7 macrophage cells, 100 ng/mL LPS, mean ± SD, read-out: Cell viability (% of control). It is filed as cell-based, murine. As for the experimental part: as §1
Cells (2 × 10^5) were cultured in 96-well plate containing DMEM supplemented with 10% FBS for 1 day to become nearly confluent. Then, cells were cultured with compounds 1–5 in the presence of 100 ng/mL LPS (lipopolysaccharide) (Eschericha coli 026:B6; Sigma-Aldrich, St. Louis, Mo) for 24 h. After that, the cells were washed twice with DPBS and incubated with 100 μL of 0.5 mg/mL MTT for 2 h at 37 °C testing for cell viability. The medium was then discarded, and 100 μL dimethyl sulfoxide (DMSO) was added. After 30-min incubation, absorbance at 570 nm was read using a microplate reader (Molecular Devices, Sunnyvale, CA, USA).

Structures are written as SMILES. In brackets after ≈: the same amount, converted by molar mass.

Broadly, the IC50 is the concentration at which inhibition is half-maximal. What is called viability is a read-out of living cells in per cent, often relative to untreated cells. Consider `COc1c(C)c(-c2c(C)c(OC)c(O)c3c2OCO3)c2c(c1O)OCO2` [Compound 3, 4,4′-dihydroxy-3,3′-dimethoxy-2,2′-dimethyl-5,6,5′,6′-bimethylenedioxybiphenyl], for which the concentration for half-maximal inhibition (IC50) in series [1] came out at 18.8 ± 0.6 µg/mL (≈ 51.9 µM). Also, the NO level in series [1] (dose 3.12 μg/mL) is 13.7 ± 0.1 µM; in series [1] (dose 6.25 μg/mL) it was 13.4 ± 0.4 µM; in series [1] (dose 12.5 μg/mL), 13.2 ± 0.1 µM; in series [1] (dose 25 μg/mL) it was 12.1 ± 0.6 µM. For the same compound, the viability at 24 h, 3.12 μg/mL in series [2] (dose 3.12 μg/mL) is 95.1 ± 2.9%. Moreover, the viability at 24 h, 6.25 μg/mL in series [2] (dose 6.25 μg/mL) stood at 93.1 ± 2.7%. Also, in series [2] (dose 12.5 μg/mL), the viability at 24 h, 12.5 μg/mL came to 93 ± 2.6%. Moreover, the viability at 24 h, 25 μg/mL in series [2] was 91 ± 7.7%. Further, in series [2], the viability at 24 h, 50 μg/mL amounted to 64.8 ± 2.2%.
With `COc1ccc2c(c1)c(CC(=O)O)c(C)n2C(=O)c1ccc(Cl)cc1` [Indomethacin, indomethacin, reference compound], the NO level in series [1] (dose 25 μg/mL) stood at 19.2 ± 0.6 µM. The compound also yielded an NO level in series [1] (dose 50 μg/mL) of 14.3 ± 0.8 µM. In addition, in series [2], the viability at 24 h, 25 μg/mL worked out at 96.2 ± 1.1% and the viability at 24 h, 50 μg/mL came to 94.8 ± 1.3%.
`COc1c(C)cc(-c2c(O)c(C)c(OC)c3c2OCO3)c2c1OCO2` [Compound 2, 2-hydroxy-4,4′-dimethoxy-3,3′-dimethyl-5,6,5′,6′-bimethylenedioxybiphenyl] gave an NO level in series [1] (dose 0.312 μg/mL) of 16.4 ± 2.4 µM. The NO level in series [1] (dose 0.625 μg/mL) is 16.1 ± 1.3 µM. The compound further had an NO level in series [1] (dose 1.25 μg/mL) of 15.7 ± 2.0 µM. Moreover, the NO level in series [1] (dose 2.5 μg/mL) worked out at 15.5 ± 1.9 µM. In series [2], the viability at 24 h, 0.312 μg/mL is 98 ± 1.5%; the viability at 24 h, 0.625 μg/mL amounted to 96.6 ± 7.6%; the viability at 24 h, 1.25 μg/mL came out at 96.6 ± 2.2%; the viability at 24 h, 2.5 μg/mL amounted to 92.7 ± 1.3%. For the same compound, the viability at 24 h, 5 μg/mL in series [2] was found to be 71.4 ± 2.2%.
As for `COc1c(C)cc(O)c2c1OCO2` [Compound 5, 2,3-methylenedioxy-4-methoxy-5-methylphenol], in series [1], the IC50 was 0.8 ± 0.3 µg/mL (≈ 4.39 µM). Besides, the NO level in series [1] (dose 0.312 μg/mL) is 15.2 ± 1.4 µM. The NO level in series [1] (dose 0.625 μg/mL) was determined as 12.8 ± 1.9 µM. Further, in series [1] (dose 1.25 μg/mL), the NO level was found to be 12.1 ± 1.6 µM. In series [1] (dose 2.5 μg/mL), this compound showed an NO level of 10.4 ± 1.3 µM. This compound showed an NO level in series [1] (dose 5 μg/mL) of 10.0 ± 2.2 µM. Moreover, in series [2], the viability at 24 h, 0.312 μg/mL worked out at 93.8 ± 2.9%; the viability at 24 h, 0.625 μg/mL is 88.5 ± 1.5%; the viability at 24 h, 1.25 μg/mL stood at 85 ± 2.9%; the viability at 24 h, 2.5 μg/mL stood at 83.8 ± 1.9%. For the same compound, in series [2], the viability at 24 h, 5 μg/mL turned out to be 82.4 ± 2.7%.
Consider `COc1cc(C)c(OC)c(O)c1OC` [Compound 4, 2,3,6-trimethoxy-5-methylphenol], for which, in series [1] (dose 0.312 μg/mL), the NO level is 20.6 ± 1.2 µM. The compound further had an NO level in series [1] (dose 0.625 μg/mL) of 19.4 ± 2.0 µM. Besides, the NO level in series [1] (dose 1.25 μg/mL) stood at 18.3 ± 0.3 µM. The compound also displayed an NO level in series [1] (dose 2.5 μg/mL) of 13.6 ± 0.6 µM. Also, in series [2], the viability at 24 h, 0.312 μg/mL came out at 97 ± 1.1%; the viability at 24 h, 0.625 μg/mL is 96.2 ± 2.2%; the viability at 24 h, 1.25 μg/mL stood at 95 ± 2.1%; the viability at 24 h, 2.5 μg/mL came out at 94.6 ± 1.6%. Also, the viability at 24 h, 5 μg/mL in series [2] amounted to 69.3 ± 2.1%.
Regarding `C=C(C)c1c(OC)c(O)c(C)c2c1OCO2` [Compound 1, 3-isopropenyl-2-methoxy-6-methyl-4,5-methylenedioxyphenol], the IC50 in series [1] is 1.8 ± 0.2 µg/mL (≈ 8.1 µM). The compound further registered an NO level in series [1] (dose 0.312 μg/mL) of 14.5 ± 2.2 µM. The NO level in series [1] (dose 0.625 μg/mL) was found to be 14.1 ± 1.5 µM. In addition, in series [1] (dose 1.25 μg/mL), the NO level came out at 13.0 ± 1.5 µM. For the same compound, the NO level in series [1] (dose 2.5 μg/mL) stood at 12.0 ± 1.7 µM. Also, in series [2], the viability at 24 h, 0.312 μg/mL came out at 92 ± 3.3%; the viability at 24 h, 0.625 μg/mL is 91 ± 3.7%; the viability at 24 h, 1.25 μg/mL amounted to 90.4 ± 2.4%; the viability at 24 h, 2.5 μg/mL came out at 87.3 ± 2.3%. The viability at 24 h, 5 μg/mL in series [2] stood at 65.5 ± 1.7%.
